What was measured:
[1] = literature; cited from earlier work
[2] = tested on: ovarian, liver and breast cancer; conditions: literature; cited from earlier work
GC3/M TK- cells = experiment: Inhibition of growth of tumor cells, thymidine kinase-deficient human colon adenocarcinoma GC3/M TK- (MTT); assay type: cell-based; conditions: for IC50: Homo sapiens, GC3/MTK-, 120 h, 5 days continuous exposure, MTT, read-out: Cell Culture IC50, GC3-M (TK-)
Description: (§1) In Vitro Testing to Determine Inhibition of Growth of Tumor Cells
(§2) Growth was measured over 3 days (L1210) or 5 days (CCRF-CEM, GC3 /M TK^-) of continuous exposure to varying concentrations of each test compound, added 4 h. after initial cell plating, by the MTT-tetrazolium reduction assay of T. J. Mosmann [J. Immunol. Meth. […] Water insoluble derivatives were dissolved in DMSO and diluted to a final concentration of 0.5% solvent in cell cultures.

CCRF-CEM cells = experiment: Inhibition of growth of tumor cells, CCRF-CEM human lymphoblastic leukemia (MTT); assay type: cell-based; conditions: Homo sapiens, CCRF-CEM, 120 h; for IC50: 5 days continuous exposure, MTT, read-out: Cell Culture IC50, CCRF-CEM
Description: as §1, §2

[3] = biological target: human TS (thymidylate synthase) (Homo sapiens, UniProt P04818); experiment: Inhibition constants against 5,10-methylenetetrahydrofolate for thymidylate synthase, human enzyme (tritium release); assay type: biochemical; conditions: cofactor as variable substrate, pH 7.6, 24° C., read-out: Ki Data, human thymidylate synthase
Chain of human TS (thymidylate synthase) (P04818 2-313 limits assumed): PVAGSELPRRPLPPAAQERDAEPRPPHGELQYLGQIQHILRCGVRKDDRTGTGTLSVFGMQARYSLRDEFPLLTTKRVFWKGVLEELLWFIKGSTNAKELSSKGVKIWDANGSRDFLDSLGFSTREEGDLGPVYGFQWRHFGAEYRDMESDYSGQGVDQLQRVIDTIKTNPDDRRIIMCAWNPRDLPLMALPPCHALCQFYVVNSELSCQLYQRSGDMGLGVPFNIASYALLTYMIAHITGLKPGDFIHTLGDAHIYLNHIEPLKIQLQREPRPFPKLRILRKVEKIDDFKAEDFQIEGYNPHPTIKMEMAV
Description: (§3) Determination of Inhibition Constants Against 5,10-Methylenetetrahydrofolate for the Enzyme Thymidylate Synthase
(§4) Inhibition constants, Ki, slope and Ki, intercept [W. W. Cleland, Biochim. Biophys. […] The cofactor was present as the variable substrate under conditions of saturating radiolabelled 2'-deoxyuridine 5-monophosphate (dUMP). […] Assays of human TS also contained 1-5 μg/mL bovine serum albumin to stabilize the protein. Reactions were initiated by the addition of enzyme and were carried out for 5 minutes at 24° C., and then quenched by the addition of charcoal (15 mg in 0.1 mL H2 O). The quenched samples were centrifuged at 10,000 rpm for 12-15 min at […] to remove unreacted dUMP which had bound to the charcoal, and 0.1 mL of the supernatant was counted by liquid scintillation in the presence of 5 mL ecolume to determine the release of tritium label from the 5-position of the dUMP. […] Experimental results were analyzed by EZ-FIT, a nonlinear regression analysis program (Perrella Scientific, Springfield, Pa.) which was used to fit all data points simultaneously to a mixed noncompetitive inhibition scheme.

[4] = biological target: E. coli TS (thymidylate synthase) (Escherichia coli, UniProt P0A884); experiment: Inhibition constants against 5,10-methylenetetrahydrofolate for thymidylate synthase, E. coli enzyme (tritium release); assay type: biochemical
Chain of E. coli TS (thymidylate synthase) (P0A884 whole entry): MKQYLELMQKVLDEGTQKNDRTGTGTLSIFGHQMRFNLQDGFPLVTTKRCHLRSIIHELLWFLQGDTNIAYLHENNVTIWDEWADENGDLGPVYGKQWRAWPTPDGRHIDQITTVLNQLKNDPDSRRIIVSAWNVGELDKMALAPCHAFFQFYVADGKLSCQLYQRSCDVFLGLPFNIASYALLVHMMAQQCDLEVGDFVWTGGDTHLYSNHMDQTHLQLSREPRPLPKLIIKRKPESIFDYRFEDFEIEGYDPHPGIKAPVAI
Description: as §3, §4

[5] = tested on: L1210 murine leukemia cells; experiment: Inhibition of growth of tumor cells, L1210 murine leukemia (MTT); assay type: cell-based
Description: as §1, §2

Row | Compound | toxicities [1] | activity against cancer [2] | growth inhibition, GC3-M (TK-) (GC3/M TK- cells; @ > 26.9 μM, 5 days) | IC50 (GC3/M TK- cells) [µM] | IC50 (CCRF-CEM cells) [µM] | inhibition at 26.9 µM (CCRF-CEM cells; @ > 26.9 μM, 5 days) [%] | Ki [3] [µM] | Ki [4] [µM] | growth inhibition, L1210 ([5]; @ 20 um, 3 days) [%] | IC50 ([5]; Mus musculus, L1210, 72 h, 3 days continuous exposure, MTT, read-out: Cell Culture IC50, L1210) [µM]
1 | C#CCN(Cc1ccc2nc(N)[nH]c(=O)c2c1)c1ccc(C(=O)N[C@@H](CCC(=O)O)C(=O)O)cc1 [10-propargyl-5,8-dideazafolic acid] | troublesome hepatic and renal toxicities | activity against ovarian, liver and breast cancer | – | – | – | – | – | – | – | –
2 | Cc1nc2cccc(Sc3ccncc3)c2c(=O)[nH]1 [Compound 7A] | – | – | none | > 26.9 | > 26.9 | 37 | 2.1 ± 0.5 | 38 ± 5 | 68 | –
3 | Cc1nc2cccc(C(O)(c3ccccc3)c3ccccc3)c2c(=O)[nH]1 [Compound 6A, 3,4-Dihydro-5-(α-diphenyl-hydroxymethyl)-2-methyl-4-oxo-quinazoline] | – | – | – | > 4.98 | 4 | – | > 10 | > 10 | – | 2.3
